From patent US20140336216A1, “PHYSIOLOGICAL LIGANDS FOR GPR139” (Janssen Pharmaceutica NV, priority 2013, published 2014)
Values joined by “and” are separate entries in the source; they are usually repeats but may differ in a detail not shown here. Equal values may be shown once.

Assays:
[1] = system: GO2Q alone; assay: GTPγS binding assay, control COS7 membranes expressing GO2Q alone (Ct-GO2Q); assay type: biochemical; details: for Activation levels (GTPγS binding), Ct-GO2Q: 1 mM final concentration, COS7 membranes expressing GO2Q alone, single wells of triplicate; for Activation of membranes from cells expressing GO2Q alone: same assay, 1 mM
Method: (§1) In order identify the ligands for GPR139 two improvements in the detection assay were made to allow for the ligands to be detected. First, we chose to use a GTPγS binding assay instead of using live cultured cells. The GTPγS binding assay is a cell free system that uses the cell membrane of the cell(s) of interest rather than the live cell(s). One advantage of this assay is that potential ligands present in the cell culture media are washed away when the cell membrane is prepared. This reduces the basal level of signal and increase the chance of detecting receptor ligands when assessing compounds that activate the receptor. Second, a GO2Q chimeric G-protein was created to be co-expressed with GPR139 in order to increase the signal-to-noise ratio in the GTPγS binding assay. Historically, the Gi, Go coupled GPCRs offer much greater signal-to-noise ratio in GTPγS binding studies. For Gs and Gq coupled GPCRs, although ligand-stimulated specific signals can be detected in a GTPγS binding assay, the signal-to-noise ratios are often very small. To address this a chimeric GO2-Gq chimeric G-protein, GO2Q, with the N-terminus from Go2 protein and the C-terminus from Gq protein.
(§2) To test for compounds that activate GPR139, different amino acids and their derivatives (Table 2) were tested as ligands in the GTPγS binding assay using cell membranes from COS7 cells co-expressing GPR139 and GO2Q. Cell membrane from COS7 cells expressing GO2Q alone or co-expressing other GPCRs were also tested in GTPγS binding assay in parallel as controls. Each compound was tested in triplicate.

[2] = molecular target: T1, GPR139 (Homo sapiens, UniProt Q6DWJ6); assay: GTPγS binding assay, single-concentration screen, COS7 membranes co-expressing GPR139 and GO2Q; assay type: biochemical; design: expressed in transfected cells; host or cells: COS7 (membranes); details: for Activation of GPR139 in the GTPγS binding assay: 1 mM; for Activation levels of GPR139 (GTPγS binding), GPR139-GO2Q: 1 mM final concentration, COS7 membranes co-expressing GPR139 and GO2Q, single wells of triplicate
T1 sequence (Q6DWJ6 1-353): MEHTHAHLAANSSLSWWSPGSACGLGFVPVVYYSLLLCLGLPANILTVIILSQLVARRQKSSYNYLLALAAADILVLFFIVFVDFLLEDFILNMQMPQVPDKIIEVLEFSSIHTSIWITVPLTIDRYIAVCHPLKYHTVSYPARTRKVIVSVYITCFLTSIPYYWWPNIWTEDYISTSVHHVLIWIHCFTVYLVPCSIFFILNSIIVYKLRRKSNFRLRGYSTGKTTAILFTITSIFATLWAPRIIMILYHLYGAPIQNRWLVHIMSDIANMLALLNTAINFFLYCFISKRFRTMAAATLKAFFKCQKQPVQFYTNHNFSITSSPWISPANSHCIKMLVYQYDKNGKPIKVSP
Method: as §1, §2

[3] = molecular target: T2, mouse GPR139 (Mus musculus, UniProt Q80UC8); assay: GTPγS binding dose response study, mouse GPR139 co-transfected with GO2Q into COS7 cells; assay type: biochemical; details: mouse GPR139, FIG. 2C and 2D
T2 construct: expressed in transfected cells; host or cells: COS7 (membranes)
T2 sequence (Q80UC8 1-345): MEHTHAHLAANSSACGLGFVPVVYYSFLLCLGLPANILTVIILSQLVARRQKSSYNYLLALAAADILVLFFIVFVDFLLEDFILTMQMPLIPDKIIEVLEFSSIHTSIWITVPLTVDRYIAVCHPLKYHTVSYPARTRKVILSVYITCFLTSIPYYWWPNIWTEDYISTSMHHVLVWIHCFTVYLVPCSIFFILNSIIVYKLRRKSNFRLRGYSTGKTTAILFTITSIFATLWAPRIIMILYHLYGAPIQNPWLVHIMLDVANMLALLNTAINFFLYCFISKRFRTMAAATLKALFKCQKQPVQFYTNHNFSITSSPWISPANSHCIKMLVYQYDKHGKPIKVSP
Text: (§3) FIG. 2-FIG. 2F: Tryptophan, phenylalanine, and their derivatives activate GPR139. Human (FIG. 2A and FIG. 2B) or mouse (FIG. 2C and FIG. 2D) GPR139 were co-transfected with chimeric G-protein GO2Q into COS7 cells. Cell membranes from transfected cells were used in GTPγS binding studies using various ligands at different concentrations to stimulate GPR139. FIG. 2E and FIG. 2F show control experiments in the dose response studies of Example 1.

[4] = molecular target: T1, GPR139; assay: GTPγS binding dose response study, human GPR139 co-transfected with GO2Q into COS7 cells; assay type: biochemical; design: expressed in transfected cells; host or cells: COS7 (membranes); details: human GPR139, FIG. 2A and 2B
Text: as §3

[5] = molecular target: T3, N-terminally V-tagged mouse GPR139 (Mus musculus, UniProt Q80UC8); assay: GPR139 internalization in transiently transfected HEK-293 cells; assay type: cell-based; details: FIG. 4
T3 construct: V tag (printed 'V-tagged' and 'VS-tagged'); expressed in transfected cells; host or cells: HEK-293 (transient)
T3 sequence (Q80UC8 1-345): T2 sequence (Q80UC8 1-345)
Text: Many GPCRs are internalize by the cell when they are activated.

[6] = molecular target: T1, GPR139; assay: Calcium mobilization assay (FLIPR), GPR139 expressed in HEK293 cells; assay type: cell-based; design: expressed in transfected cells; host or cells: HEK293 (transient); details: for EC50: GPR139 expressing HEK293 cells, read-out: EC50 (half maximal effective concentration), calcium mobilization; for Stimulation of calcium mobilization: human GPR139 transiently expressed in HEK293 cells, FIG. 3
Method: FIG. 3A and FIG. 3B: Provides the results of experiments conducted to determine whether Trp and its derivatives (FIG. 3A) and Phe and its derivatives (FIG. 3B) stimulate Ca^2+ mobilization in HEK293 cells expressing GPR139.
The active compounds were also tested in a calcium mobilization assay (FLIPR® assay). For these experiments human GPR139 was transiently expressed in HEK293 cells and calcium mobilization was stimulated using L-Trp, L-Phe or their derivatives. […] The concentrations of L-Trp and L-Phe in many cell culture media (for instance DMEM is about 80 μM and 750 μM respectively) are close to the EC50 values of L-Trp and L-Phe for GPR139. […] This may explain why GPR139 appeared constitutively active when recombinantly expressed in mammalian cells.
About 300 additional phenylalanine analogues have been tested for GPR139 activation using a calcium mobilization (FLIPR®) assay. The results of these experiments indicate that many of these analogues can also activate GPR139. Table 4 lists certain phenylalanine analogues that have been determined to activate GPR139 by calcium mobilization at a concentration of 300 μM (calcium mobilization is expressed as percentage of that observed for L-phenylalanine).

[7] = system: GPR21, GPR52, GPCR119, GPCR132, GPCR134, or GPR182; assay: GTPγS binding assay, control membranes co-expressing GO2Q and other GPCRs (data not shown); assay type: biochemical
Method: as §2

Structure (SMILES) | Activation levels (GTPγS binding), Ct-GO2Q [1] | Activation of GPR139 in the GTPγS binding assay [2] | Activation levels of GPR139 (GTPγS binding), GPR139-GO2Q [2] | Dose-responsive activation of GPR139 (GTPγS binding) [3] | Dose-responsive activation of GPR139 (GTPγS binding) [4] | Activation of membranes from cells expressing GO2Q alone [1] | Internalization of tagged GPR139 upon stimulation [5] | EC50 [6] | Stimulation of calcium mobilization [6] | Activation of membranes from cells co-expressing GO2Q and other GPCRs [7]
CC(N)Cc1ccccc1 (centres unmarked) [Amphetamine] | 2331 and 2132 and 2001 | activated GPR139 | 7242 and 6744 and 7263 | specifically activate GPR139 in a dose-responsive manner | specifically activate GPR139 in a dose-responsive manner |  |  |  |  | 
N[C@@H](Cc1ccccc1)C(=O)O [Phe, L-phenylalanine] | 2190 and 2215 and 2345 | able to activate GPR139 | 8697 and 6925 and 8417 | specifically activate GPR139 in a dose-responsive manner | specifically activate GPR139 in a dose-responsive manner | did not activate | internalized | 100 to 200 µM | specifically stimulate calcium mobilization | did not activate
N[C@@H](Cc1c[nH]c2ccccc12)C(=O)O [Trp, L-tryptophan] | 2172 and 2234 and 2272 | able to activate GPR139 | 8141 and 9121 and 9149 | specifically activate GPR139 in a dose-responsive manner | specifically activate GPR139 in a dose-responsive manner | did not activate | internalized | 100 to 200 µM | specifically stimulate calcium mobilization | did not activate
NCCc1c[nH]c2ccccc12 [Tryptamine] | 2025 and 2048 and 2088 | activated GPR139 | 6757 and 7686 and 7742 | specifically activate GPR139 in a dose-responsive manner | specifically activate GPR139 in a dose-responsive manner |  |  |  |  | 
NCCc1ccccc1 [b-phenylethylamine, β-phenylethylamine] | 2334 and 2065 and 2024 | activated GPR139 | 6705 and 7099 and 6634 | specifically activate GPR139 in a dose-responsive manner | specifically activate GPR139 in a dose-responsive manner |  |  |  |  | 
